Assay results: patent US9757375B2, “Compounds that inhibit human DNA ligases and methods of treating cancer” (University of Maryland, Baltimore, priority 2007, dated 2017)
Entries after “also recorded” stand apart in the source; their conditions may differ. Read-outs that look alike come from different tables or passages of the source.

What was measured:
[1] = target: T1, hLigI (Homo sapiens, UniProt P18858); assay: High-throughput fluorescence-based DNA joining (ligation) assay; type: biochemical; settings: for inhibition of hLigI (DNA ligase I), in words: in vitro screen, 100 μmol/L, the 15 hLigI inhibitors inhibited by >50%
T1 construct: made in house
Method: (§1) Candidate ligase inhibitors identified by CADD were assayed for their ability to inhibit hLigI and T4 DNA ligase using a high-throughput, fluorescence energy transfer-based DNA joining assay (22). Duplicate reactions (30 μL) containing 10 pmol of nicked DNA substrate and either 0.25 pmol of hLigI or 10 units of T4 DNA ligase were incubated in the presence or absence of 100 μmol/L of the putative inhibitor. DNA binding by the candidate DNA ligase inhibitors was measured by displacement of ethidium bromide from DNA as previously described (30).
(§2) The method for screening compounds comprises testing the compound for the ability to inhibit human DNA ligases I, III and IV with a high throughput fluorescence-based ligation assay. In this assay, phosphodiester bond formation covalently links together two oligonucleotides, one of which is a fluorescent donor AF488 that is 11 nucleotides from the 3′ terminus and the other contains a fluorescence acceptor and quencher, BHQ1 that is 15 nucleotides from the 5′ terminus. When these oligonucleotides are present in separate duplexes and in the same nicked or intact duplex, there is no significant quenching of fluorescence because the donor and acceptor are too far apart. As single-strands neither the AF488 oligonucleotide nor the BHQ1 oligonucleotides have significant secondary structure. However, when these oligonucleotides are ligated together, the resultant single strand forms a stable hairpin structure, in which the AF488 and BHQ1 groups are very close together, resulting in efficient intra-molecular quenching of fluorescence. Thus, in the DNA joining assay, the DNA substrate is denatured after incubation with the DNA ligase and then renatured in the presence of a 20-fold excess of an oligonucleotide that is identical to the ligated strand containing the fluorescent door and acceptor except that it lacks these modifications. Using this assay, DNA joining, which results in reduced fluorescence at 518 nm, can be measured rapidly, quantitatively and with high-throughput using a fluorescence plate reader.
(§3) Applicants developed a novel high throughput fluorescence-based ligation assay by modifying the sequence of the oligos to optimize hairpin formation by the single strand ligated product of the high throughput fluorescence-based ligation assay of Chen et al (22). […] Compound stock solutions, which were 10 mM in 0.5% DMSO, were diluted in 0.5% DMSO. Human DNA ligases I and III were assayed with a nicked DNA substrate whereas as the substrate for human DNA ligase IV was two oligonucleotide duplexes with short complementary single strand ends.

[2] = target: T2, human DNA ligase III (Homo sapiens, UniProt P49916); assay: as above; type: biochemical
T2 sequence (P49916 1-862 isoform P49916-4): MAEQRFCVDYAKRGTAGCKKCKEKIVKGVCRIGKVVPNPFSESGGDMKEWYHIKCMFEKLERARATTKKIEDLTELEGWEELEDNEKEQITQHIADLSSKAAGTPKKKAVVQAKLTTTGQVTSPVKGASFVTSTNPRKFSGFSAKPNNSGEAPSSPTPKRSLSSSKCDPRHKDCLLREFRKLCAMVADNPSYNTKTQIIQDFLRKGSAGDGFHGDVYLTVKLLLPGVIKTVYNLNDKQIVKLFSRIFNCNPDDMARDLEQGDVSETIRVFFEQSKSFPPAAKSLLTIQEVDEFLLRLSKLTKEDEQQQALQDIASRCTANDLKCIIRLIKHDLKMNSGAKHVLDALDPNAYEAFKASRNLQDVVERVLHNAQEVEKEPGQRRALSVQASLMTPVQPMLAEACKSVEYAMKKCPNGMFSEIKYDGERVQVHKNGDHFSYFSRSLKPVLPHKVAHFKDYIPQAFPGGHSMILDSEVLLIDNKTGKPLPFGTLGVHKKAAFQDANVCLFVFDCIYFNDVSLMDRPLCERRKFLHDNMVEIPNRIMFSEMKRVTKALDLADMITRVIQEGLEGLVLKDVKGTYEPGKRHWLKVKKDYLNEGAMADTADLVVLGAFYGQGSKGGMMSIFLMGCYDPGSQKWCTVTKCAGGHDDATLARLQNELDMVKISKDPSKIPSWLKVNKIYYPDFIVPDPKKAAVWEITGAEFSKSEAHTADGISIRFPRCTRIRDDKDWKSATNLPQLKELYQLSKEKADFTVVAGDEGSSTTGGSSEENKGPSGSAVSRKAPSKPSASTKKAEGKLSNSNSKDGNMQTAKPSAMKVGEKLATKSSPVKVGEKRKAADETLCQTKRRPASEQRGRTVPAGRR
From the text: as §2, §3

[3] = target: human DNA ligase IV (Homo sapiens, UniProt P49917); assay: as above; type: biochemical; settings: for % activity Inhibition hLigIV 100 uM: Ø not defined (0 in Table 5A)
From the text: as §2, §3

[4] = target: T3, T4 DNA ligase (Enterobacteria phage T4, UniProt P00970); assay: High-throughput fluorescence-based DNA joining assay, non-specific inhibitor control; type: biochemical, bacteriophage T4
T3 construct: purchased NEB
T3 sequence (P00970 1-487): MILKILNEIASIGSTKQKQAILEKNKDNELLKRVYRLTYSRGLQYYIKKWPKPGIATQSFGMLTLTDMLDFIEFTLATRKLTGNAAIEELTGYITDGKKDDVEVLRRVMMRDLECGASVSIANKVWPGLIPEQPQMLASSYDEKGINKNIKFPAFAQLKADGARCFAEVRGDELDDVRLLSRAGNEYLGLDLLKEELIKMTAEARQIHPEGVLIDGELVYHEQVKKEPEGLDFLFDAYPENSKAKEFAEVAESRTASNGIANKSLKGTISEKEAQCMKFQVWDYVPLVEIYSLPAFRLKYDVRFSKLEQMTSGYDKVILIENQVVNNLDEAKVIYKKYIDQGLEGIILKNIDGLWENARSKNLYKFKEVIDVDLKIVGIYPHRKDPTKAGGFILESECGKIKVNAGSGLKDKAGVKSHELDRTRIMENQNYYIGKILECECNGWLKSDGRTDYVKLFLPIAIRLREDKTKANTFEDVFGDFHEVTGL
Method: as §1
In addition, to identify compounds that may be non-specific inhibitors of DNA joining, the 192 compounds were also assayed for their ability to inhibit bacteriophage T4 DNA ligase, an enzyme that utilizes the same reaction mechanism as hLigI, has similar adenylation and OB-fold domains but lacks a DBD domain. (6) Although this is also an ATP-dependent DNA ligase, it lacks the domain containing the binding pocket targeted by the in silico screen. Compounds that inhibited T4 DNA ligase were eliminated as non-specific inhibitors that most likely bind to the DNA.

[5] = 100 uM, read-out: % activity Inhibition hLigI 100 uM
[6] = 100 uM, Ø not defined (0 in Table 5A), read-out: % activity Inhibition hLigIII 100 uM
[7] = read-out: % activity Inhibition LigT4 100 uM
[8] = 100 uM, Ø not defined (0 in Table 5A)
[9] = 100 μM, read-out: % of inhibition @ 100 μM (Helen's data) hLigI
[10] = read-out: % of inhibition @ 100 μM (Helen's data) hLigIII
[11] = read-out: % of inhibition @ 100 μM (Helen's data) hLigIV

T1 sequence (P18858 whole entry): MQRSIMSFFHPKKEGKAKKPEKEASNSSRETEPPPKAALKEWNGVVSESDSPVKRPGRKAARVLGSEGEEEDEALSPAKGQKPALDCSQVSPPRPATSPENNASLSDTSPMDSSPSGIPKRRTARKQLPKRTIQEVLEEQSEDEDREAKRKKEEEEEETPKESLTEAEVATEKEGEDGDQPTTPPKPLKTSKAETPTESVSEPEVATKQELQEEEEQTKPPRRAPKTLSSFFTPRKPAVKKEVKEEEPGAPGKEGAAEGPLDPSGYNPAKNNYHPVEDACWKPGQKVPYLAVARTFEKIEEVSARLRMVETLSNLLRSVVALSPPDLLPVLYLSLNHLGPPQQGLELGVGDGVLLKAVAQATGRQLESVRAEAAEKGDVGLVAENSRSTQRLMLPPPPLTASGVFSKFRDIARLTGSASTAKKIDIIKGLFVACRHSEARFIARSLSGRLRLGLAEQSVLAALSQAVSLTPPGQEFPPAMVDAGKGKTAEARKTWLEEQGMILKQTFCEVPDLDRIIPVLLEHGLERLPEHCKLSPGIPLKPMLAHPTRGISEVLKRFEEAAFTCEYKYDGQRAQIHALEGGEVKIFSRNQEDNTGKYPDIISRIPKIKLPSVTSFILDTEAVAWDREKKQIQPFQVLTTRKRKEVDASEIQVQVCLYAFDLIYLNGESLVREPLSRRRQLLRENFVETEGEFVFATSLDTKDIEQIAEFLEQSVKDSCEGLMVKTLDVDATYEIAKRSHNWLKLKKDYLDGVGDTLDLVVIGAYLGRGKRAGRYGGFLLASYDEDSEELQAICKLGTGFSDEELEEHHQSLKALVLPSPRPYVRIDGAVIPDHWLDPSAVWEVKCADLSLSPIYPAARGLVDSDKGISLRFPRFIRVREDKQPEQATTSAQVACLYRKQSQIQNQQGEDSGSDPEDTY
human DNA ligase IV, sequence (P49917 whole entry): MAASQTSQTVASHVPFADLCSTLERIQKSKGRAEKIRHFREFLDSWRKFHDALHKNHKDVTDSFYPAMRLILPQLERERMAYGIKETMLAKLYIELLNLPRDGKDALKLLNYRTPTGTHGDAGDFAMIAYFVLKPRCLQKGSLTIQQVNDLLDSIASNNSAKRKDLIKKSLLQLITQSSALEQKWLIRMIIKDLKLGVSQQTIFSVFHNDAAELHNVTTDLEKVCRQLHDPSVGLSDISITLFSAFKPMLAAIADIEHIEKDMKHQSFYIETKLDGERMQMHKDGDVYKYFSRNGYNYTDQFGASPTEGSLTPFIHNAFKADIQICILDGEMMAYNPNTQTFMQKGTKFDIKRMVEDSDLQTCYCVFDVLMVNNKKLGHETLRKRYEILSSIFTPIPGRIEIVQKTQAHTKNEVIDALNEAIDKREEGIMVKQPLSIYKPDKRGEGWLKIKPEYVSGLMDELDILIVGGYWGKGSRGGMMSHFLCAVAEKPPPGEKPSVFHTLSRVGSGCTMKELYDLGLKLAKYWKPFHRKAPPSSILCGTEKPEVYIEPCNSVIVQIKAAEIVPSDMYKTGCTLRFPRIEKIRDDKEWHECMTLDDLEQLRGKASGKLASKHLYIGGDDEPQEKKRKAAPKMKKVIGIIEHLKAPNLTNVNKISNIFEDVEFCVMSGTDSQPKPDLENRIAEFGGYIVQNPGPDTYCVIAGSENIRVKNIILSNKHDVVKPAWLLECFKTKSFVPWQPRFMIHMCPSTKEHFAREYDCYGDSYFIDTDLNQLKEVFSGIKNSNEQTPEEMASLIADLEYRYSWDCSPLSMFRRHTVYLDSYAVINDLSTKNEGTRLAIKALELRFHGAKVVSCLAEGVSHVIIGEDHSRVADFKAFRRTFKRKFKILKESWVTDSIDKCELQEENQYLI
human DNA ligase IV, sequence (Q13426 whole entry partner): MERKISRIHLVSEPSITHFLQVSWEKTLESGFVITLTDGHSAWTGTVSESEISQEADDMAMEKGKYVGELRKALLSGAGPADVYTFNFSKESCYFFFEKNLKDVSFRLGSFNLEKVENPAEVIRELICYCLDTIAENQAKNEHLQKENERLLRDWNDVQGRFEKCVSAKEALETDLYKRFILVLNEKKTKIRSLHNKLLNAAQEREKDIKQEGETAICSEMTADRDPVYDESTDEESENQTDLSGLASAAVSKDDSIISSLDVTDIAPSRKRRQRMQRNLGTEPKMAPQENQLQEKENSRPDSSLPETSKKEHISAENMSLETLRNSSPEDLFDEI

SMILES | inhibition at 100 µM [1, 5] [%] | % activity Inhibition hLigIV 100 uM [3] | inhibition at 100 µM [4, 7] [%] | % activity Inhibition hLigIII 100 uM [2, 8] | further results
O=C1Nc2c(C(=O)O)cccc2C1=O [Compound 25] | 59.3 ± 7.5 | Ø | 12.9 ± 6.3 | – | inhibition at 100 µM ([1]; 100 μM, read-out: In vitro % inhib hLigI 100): 59 ± 8%; inhibition of hLigI (DNA ligase I), in words [1]: inhibited hLigI; also recorded: specifically inhibit DNA ligases I and III; inhibition at 100 µM ([2]; 100 μM, read-out: In vitro % inhib hLigIII 100): 73 ± 5%; inhibition at 100 µM [2, 6]: 72.8 ± 4.8%; inhibition of human DNA ligase III, in words ([2]; in vitro screen): specifically inhibit DNA ligases I and III; inhibition at 100 µM ([3]; read-out: In vitro % inhib hLigIV 100): 0%; inhibition at 100 µM ([4]; 100 μM, read-out: In vitro % inhib T4 100): 13 ± 6%
COC(=O)c1ccc(-n2nnnc2SCC(=O)c2ccc(O)c(O)c2)cc1 [Compound 32] | – | – | – | – | inhibition of hLigI (DNA ligase I), in words [1]: inhibited hLigI
Cc1[nH]c2ccc(C(=O)O)cc2c1CC(=O)O [Compound 35] | 38.7 | Ø | 3.7 ± 2.3 | Ø | –
O=C(O)Cn1nnnc1-c1ccc(F)cc1 [Compound 37] | 25.2 ± 14.1 | Ø | 3.7 | Ø | –
O=C(O)c1ccc(C(=O)c2ccc3c(c2)C(=O)N(CCO)C3=O)cc1 [Compound 46] | – | Ø | – | – | % activity Inhibition hLigI 100 uM ([1]; 100 uM): Ø; inhibition at 100 µM [2, 6]: 21.6 ± 8.56%
O=C(O)c1ccc(Sc2ccccn2)c([N+](=O)[O-])c1 [Compound 47] | 24.2 ± 4.3 | Ø | 2.2 ± 0.7 | Ø | –
CCC(Nc1ncnc2ccccc12)C(=O)O (stereo not drawn) [Compound 51] | 24.3 ± 13.5 | Ø | 0 | Ø | –
O=C(O)c1ccc(C(=O)O)c(C(=O)O)c1 [Compound 53] | 36.4 ± 4.7 | Ø | 3.7 ± 4.8 | Ø | –
Nc1nonc1C(=O)O [Compound 54] | 32.2 ± 10.5 | Ø | 6.9 ± 0.45 | Ø | –
COC(=O)c1ccc(S(=O)(=O)O)o1 [Compound 55] | – | Ø | – | Ø | % activity Inhibition hLigI 100 uM ([1]; 100 uM): 7.5 ± 9.3%; % activity Inhibition LigT4 100 uM [4]: 0.58 ± 3.1%
O=C(NN=Cc1ccc(S(=O)(=O)O)o1)c1ccccc1O [Compound 79] | – | – | – | – | % of inhibition @ 100 μM (Helen's data) hLigI ([1]; 100 μM): NI (NI- no inhibition); % of inhibition @ 100 μM (Helen's data) hLigIII ([2]; 100 μM): NI (NI- no inhibition); % of inhibition @ 100 μM (Helen's data) hLigIV [3]: NI (NI- no inhibition)
O=C(O)CN1C(=O)c2ccc([N+](=O)[O-])cc2C1=O [Compound 90] | 20.7 ± 4.8 | Ø | 1.6 ± 3.1 | Ø | –
COc1cccc(Cn2nnc(C(=O)O)c2C(=O)O)c1 [Compound 103] | 23.1 ± 1.8 | Ø | 6.2 ± 4.3 | Ø | –
N#CCSc1nnc(SCC#N)s1 [Compound 123] | – | – | – | – | inhibition of hLigI (DNA ligase I), in words [1]: inhibited hLigI
COC(=O)c1scc(Br)c1O [Compound 124] | – | – | – | – | inhibition at 100 µM [1, 9]: < 20%; inhibition at 100 µM [2, 10]: < 20%; inhibition at 100 µM [3, 11]: < 20%
Sc1nccc(-c2cccnc2)n1 [Compound 130] | – | – | – | – | inhibition at 100 µM [1, 9]: < 20%; inhibition at 100 µM [2, 10]: < 20%; inhibition at 100 µM [3, 11]: < 20%
O=C(O)c1ccc2nccnc2c1 [Compound 175] | – | – | – | – | inhibition of hLigI (DNA ligase I), in words [1]: inhibited hLigI
O=C(O)Cc1ccccc1S(=O)(=O)c1ccc(Cl)cc1 [Compound 193] | – | Ø | – | Ø | % activity Inhibition hLigI 100 uM ([1]; 100 uM): 28.2 ± 34.4%; % of inhibition @ 100 μM (Helen's data) hLigI ([1]; 100 μM): NI (NI- no inhibition); % of inhibition @ 100 μM (Helen's data) hLigIII ([2]; 100 μM): NI (NI- no inhibition); % of inhibition @ 100 μM (Helen's data) hLigIV [3]: NI (NI- no inhibition); % activity Inhibition LigT4 100 uM [4]: 0.44 ± 2.1%
COc1ccc(C(CC(=O)O)NC(=O)c2ccco2)cc1 (stereo not drawn) [Compound 207] | 20.7 ± 19 | Ø | 10 ± 2 | – | inhibition at 100 µM [2, 6]: 25.8 ± 10.7%
O=C(O)c1ccc([N+](=O)[O-])c(C(=O)O)n1 [Compound 212] | – | – | – | – | inhibition at 100 µM [1, 9]: < 20%; inhibition at 100 µM [2, 10]: < 20%; inhibition at 100 µM [3, 11]: < 20%
Oc1nn(-c2ccc(Br)cc2)cc1Br [Compound 221] | – | – | – | – | inhibition at 100 µM [1, 9]: > 20%; inhibition at 100 µM [2, 10]: < 20%; inhibition at 100 µM [3, 11]: < 20%
